Reference: patent publication US20250092360A1, “METHODS AND COMPOSITIONS FOR GENERATING SOMATOSTATIN+ INTERNEURONS FROM HUMAN FOREBRAIN NEURAL PROGENITOR CELLS” (Trailhead Biosystems Inc., priority 2023, published 2025)
“Also recorded” adds a separate entry of the source.

Key:
[1] = test system: medial ganglionic eminence (MGE)-derived neural progenitors; assay: HD-DoE stage 4, 12-factor experiment: SOX6 expression; format: cell-based, human
Description: These effectors are small chemical compounds or proteins. They are commonly used during the differentiation of stem cells to specific cell linage. The choice of the effectors was based on the current literature on forebrain neural induction and differentiation of neural progenitor cells to mature neurons.
To evaluate the effectors on SST differentiation, experiments with 8 or 12 factors were designed to assess the responses of cells to 48 or more combinations of effectors in a range of concentrations. To analyze the models, we focused on expression of genes involved in development and patterning of the forebrain interneurons maturation including LHX6 (Liodis et al. (2007) J. Neurosci. 27:3078-3089; Yuan et al. (2018) Elife 7: e37382), SOX6 (Azim et al. (2009) Nature Neurosci. 12:1238-1247; Batista-Brito et al. (2009) Neuron 63:466-481), DLX5 (de Lombares et al. (2019) Aging (Albany NY) 11:6638; Wang et al. (2010) J. Neurosci. 30:5334-5345) and ASCL1 (Barretto et al. (2020) J. Neurosci. Meth. 334:108548; Shi et al. (2016) J. Biol. Chem. 291:13560-13570). At later stages we focused on interneuron maturation genes including somatostatin and absence of Parvalbumin (Horn and Nicoll (2018) Proc. Natl. Acad. Sci. 115:589-594). The impacts of each effector on gene expression level are defined by a parameter called factor contribution that is calculated for each effector during the modeling.
To identify the recipe for differentiation at stage 4, at least 48 different combinations of effectors were robotically prepared by the Design-of-Experiments compression through D-optimality. The effector combinations were prepared in a basal media and were subsequently added to the cells, which were then allowed to differentiate. Three days later, RNA extraction was performed, and gene expression levels were examined using quantitative PCR analysis. The data was normalized and modeled using partial least squares regression analysis to the effector design, resulting in the generation of gene-specific models, which after model tuning for maximal predictive power, provided explanation of the effectors ability to control the expression of individual genes, combinatorically, and individually. Solutions within the tested space could then be explored to address desirability.
IGF-1 activates the IGF-1 pathway, promotes neuron axonal growth, and establishes the synapse of interneurons. GDNF is the […] and can activate the GDNF pathway. MK2206 is an AKT inhibitor and can inhibit cell proliferation and promote neuronal maturation. PD173074 and BLU-554 are FGFR inhibitors. The FGF pathway is required for the maintenance of neural progenitor cells. Inhibition of the FGFR pathway promotes neural maturation. GSI-XX is a notch pathway inhibitor. Notch pathway inhibits neural progenitor cell differentiation. Inhibition of the Notch pathway promotes neural differentiation.
To find the set of factors that have the potential to optimize SOX6 in this experiment, a new assessment was done through dynamic profile analysis with focus on maximal expression of SOX6.

[2] = test system: medial ganglionic eminence (MGE)-derived neural progenitors; assay: Factor criticality analysis, stage 4 recipe; format: cell-based, human; conditions: FIG. 27, in words
Procedure: To assess the impact of elimination of each validated factor, dynamic profile analysis was again used to compare the expression levels of genes of interest in the absence of each finalized factor while the others were present in the media.
In the stage 4 recipe, each of the five finalized factors was removed while the other four factors remained present in the media and the expression level of forebrain genes was assessed compared to the presence of all 6 factors. SOX6 expression was reported to determine the cortical interneuron-precursors cell fate (see e.g., Azim et al. (2009) Nature Neurosci. 12:1238-1247; Batista-Brito et al. (2009) Neuron 63:466-481). Therefore, optimization of SOX6 expression was focused on at this stage.

[3] = test system: stage 2 neural stem cells; assay: Factor criticality analysis, stage 3 recipe; format: cell-based, human; conditions: other five stage 3 factors present
Procedure: (§1) To assess the impact of the elimination of each validated factor, dynamic profile analysis was used and compared the expression level of genes of interest in absence of each finalized factor while others are present.
In the stage 3 recipe, each of the six finalized factors were removed while the other five factors remained present and the expression levels of ASCL1, DLX1 and LHX6 were assessed compared to the presence of all six factors. […] As expected, in the absence of IGF-1, the value of DLX1 increases to 410, however, ASCL1 and LHX6 decreased to 1390 and 220, respectively.

[4] = test system: stage 2 neural stem cells; assay: HD-DoE stage 3 experiment: ASCL1, LHX6, DLX1 expression; format: cell-based, human
Procedure: To further guide the cells to medial ganglionic eminence progenitor fate, an additional HD-DoE experiment was performed for 3 days on cells that were treated with stage 1 and stage 2 media for total of 6 days prior to start of the experiment. This experiment included 13 effectors, LDN193189, A8301, GNF5837, AZD3147, GSI-XX, Takinib, PD0325901, PD173074, BLU9931, IGF-1, MHY1485, Purmorphamine and Prostratin. In this model, we focused on maximum expression of genes expressed in neuronal progenitor cells in medial ganglionic eminence (MGE) region including ASCL1, LHX6 and DLX1 (Silberberg et al. (2016) Neuron 92:59-74). When the model was optimized for maximum expression of ASCL1 at 1700, A8301, GSI-XX, Purmorphamine and Takinib, which is an inhibitor of TAK1 pathway, had the highest factor contributions, 18.1, 14.1, 12.7 and 10.1 respectively. […] MHY 1485 also had positive contribution however the factor was below 2 (FIG. 9).
Therefore, six effectors including A8301, GSI-XX, Takinib, GNF5837, IGF-1 and Purmorphamine were finalized as ingredients of stage 3 differentiation media. A representative recipe for Stage 3 differentiation is summarized below in Table 3.

[5] = test system: forebrain-committed neural stem cells; assay: Factor criticality analysis, stage 2 recipe; format: cell-based, human; conditions: other three stage 2 factors present
Procedure: as §1
In the stage 2 recipe, each of the four finalized factors were removed while the other three factors remained present and expression levels of NKX2-1, PAX6 and NKX2-2 were assessed compared to presence of all four factors. Absence of PD0325901 reduced the levels of NKX2-1 and NKX2-2 while increasing PAX6 from 5000 to 3200, 100 to 0 and 0 to 5000, respectively. […] Removing XAV939 reduced the levels of NKX2-1 from 5000 to 3000, while increasing both PAX6 and NKX2-2 to 10000 and 200, respectively. Another observation was the interaction between XAV939 and Purmorphamine. In the absence of XAV939, the impact of Purmorphamine on NKX2-1 became negative and, as it is shown in interaction plot of FIG. 14, the level of NKX2-1 is higher when both factors are present.

[6] = test system: forebrain-committed neural stem cells; assay: HD-DoE stage 2, 12-factor experiment: NKX2-1 expression; format: cell-based, human; conditions: model / dynamic profile, in words
Procedure: To further guide the differentiation of forebrain-committed neural stem cells to ventral forebrain neural stem cells at stage 2, a HD-DoE experiment was performed for 3 days after termination of stage 1 treatment. […] This 12-factor experiment included LDN193189, BMP7, PD0325901, MK2206, A8301, XAV939, CHIR99021, Purmorphamine, SANT-1, AGN193109, TTNPB and GSI-XX. […]

[7] = test system: human pluripotent stem cells; assay: HD-DoE stage 1, first 12-factor experiment: gene expression (qPCR) after 3-day treatment; format: cell-based
Description: This example utilizes a method of High-Dimensional Design of Experiments (HD-DoE), as previously described in Bukys et al. (2020) […] 23:101346. The method employs computerized design geometries to simultaneously test multiple process inputs and offers mathematical modeling of a deep effector/response space. The method allows for finding combinatorial signaling inputs that control a complex process, such as during cell differentiation. It allows testing of multiple plausible critical process parameters, as such parameters impact output responses, such as gene expression. Because gene expression provides hallmark features of the phenotype of, for example, a human cell, the method can be applied to identify, and understand, which signaling pathways control cell fate. In the current example, the HD-DOE method was applied with the intent to find conditions for induction of […] neural progenitor-expressed genes, directly from the pluripotent stem cell state. To develop the recipe for each stage, the impact of agonists and antagonists of multiple signaling pathways (herein called effectors) on the expression of two sets of 53 pre-selected genes, after a 3-day treatment, has been tested and modeled. These effectors are small molecules or proteins that are commonly used during stepwise differentiation of stem cells to specific fates. Choice of the effectors were based on current literature on neural induction in forebrain region of developing brain and differentiation of stem cells to neural progenitors. To test the effectors, experiments with at least 8 factors were designed that can assess the response of cells to 48 or more different combinations of effectors in a range of concentrations. To analyze the models, we focused on expression of genes involved in development and patterning of the anterior neuroectoderm and forebrain including OTX2 (Hoch et al. (2015) Cell Reports 12:482-494), SIX3 (Lagutin et al. (2003) Genes & Development 17:368-379) and FEZF2 (Zhang et al. (2014) Development 141:4794-[…]). At later stages we focused on dorsoventral patterning of telencephalon and gene expressed in ventral forebrain including NKX2-1 and absence of PAX6 which is a dorsal forebrain marker (Stoykova et al. (2000) J. Neurosci. 20:8042-8050). The impact of each effector on gene expression level is defined by a parameter called factor contribution that is calculated for each effector during the modeling. To identify the recipe for stage 1 of differentiation, 96 different combinations of effectors generated using Design-of-Experiments compression through D-optimality were robotically prepared. The effector combinations were prepared in a basal media and were subsequently added to the cells, which were then allowed to differentiate. Three days later RNA extraction was performed, and gene expression was obtained using quantitative PCR analysis. The data were normalized and modeled using partial least squares regression analysis to the effector design, resulting in the generation of gene-specific models, which after model tuning for maximal Q2 predictive power, provided explanation of the effectors ability to control the expression of individual genes, combinatorically, and individually. Solutions within the tested space could then be explored to address desirability. Optimizing for maximal expression of SIX3 at 3300 and FEZF2 1355 expression values led to robust solutions. This model was derived from testing 12 effectors including AGN193109, LDN193189, CHIR99021, XAV939, IGF2, Purmorphamine, 4-oxo-RA, TTNPB, SR11237, FGF8, PD0325901 and […]. […] The model was also optimized for maximum expression of FEZF2 separately at 3576 expression value to find any additional factors that can boost expression of forebrain genes. […] To find the set of factors that have the potential to optimize all 3 genes in this experiment, a new assessment was done through dynamic profile analysis with focus on maximal expression of OTX2, FEZF2 and SIX3.

[8] = test system: human pluripotent stem cells; assay: HD-DoE stage 1, additional experiment: FEZF2 expression; format: cell-based
Procedure: To identify the recipe for stage 1 of differentiation, 96 different combinations of effectors generated using Design-of-Experiments compression through D-optimality were robotically prepared. The effector combinations were prepared in a basal media and were subsequently added to the cells, which were then allowed to differentiate. Three days later RNA extraction was performed, and gene expression was obtained using quantitative PCR analysis. The data were normalized and modeled using partial least squares regression analysis to the effector design, resulting in the generation of gene-specific models, which after model tuning for maximal Q2 predictive power, provided explanation of the effectors ability to control the expression of individual genes, combinatorically, and individually. Solutions within the tested space could then be explored to address desirability. To further enhance the conditions for forebrain differentiation from pluripotency, an additional HD-DoE experiment was performed. Additional gene regulatory models were obtained that were used for preparation of the differentiation protocol. The factors in this experiment included LDN193189, PD173074, BLU9931, Purmorphamine, SC79, MK2206, ZM336372, PD0325901, CHIR99021, XAV939, UCLA-GP130, Tofacitinib and GO6983. […] Dynamic profile analysis was also used to assess the interaction between the effectors.

[9] = test system: human pluripotent stem cells; assay: Factor criticality analysis, stage 1 recipe (dynamic profile analysis); format: cell-based; conditions: other five stage 1 factors present, FIG. 11
Description: as §1, with “present. […] When Purmorphamine was removed, levels of FEZF2 and SIX3 were decreased to 1000 and below 3000, while levels of OTX2 increased to 6500.” for “present.”

IGF-1: Growth factor; activates the IGF-1 pathway
impact on expression of SOX6 ([1]; dynamic profile, in words): positive impact | factor contribution, expression of SOX6 ([1]; positive impact, model optimized for maximal SOX6 at 1442): 2.9 | effect on SOX6 expression [2]: increase | expression level of DLX1 when the factor is removed ([3]; 220 with all six factors): 410 | expression level of LHX6 when the factor is removed ([3]; 240 with all six factors): 220 | expression level of ASCL1 when the factor is removed ([3]; 1650 with all six factors): 1390 | impact on expression of ASCL1 ([4]; dynamic profile, in words): positive effect | impact on expression of DLX1 ([4]; dynamic profile, in words): negative impact | impact on expression of LHX6 ([4]; dynamic profile, in words): positive effect | factor contribution, expression of ASCL1 ([4]; positive, model optimized for maximum ASCL1 at 1700): 7

Oc1nc(-c2ccc(C(F)(F)F)cc2)nc2c1CSCC2 [XAV939]
expression level of PAX6 when the factor is removed ([5]; 0 with all four factors): 10000 | expression level of NKX2-2 when the factor is removed ([5]; 100 with all four factors): 200 | expression level of NKX2-1 when the factor is removed ([5]; 5000 with all four factors): 3000 | impact on expression of NKX2-1 [6]: increase; also recorded: Positive impact | impact on expression of OTX2 ([7]; dynamic profile / model, in words): positive impact | factor contribution, expression of SIX3 ([7]; positive impact, model optimized for maximal SIX3, 3-day treatment, qPCR): 5 | impact on expression of FEZF2 ([8]; dynamic profile, in words): positive impact | factor contribution, expression of FEZF2 ([8]; positive impact, additional stage 1 experiment optimized for FEZF2): 12 | expression level of FEZF2 when the factor is removed ([9]; 2000 with all six factors): 1700 | expression level of SIX3 when the factor is removed ([9]; 3000 with all six factors): 1000 | expression level of OTX2 when the factor is removed ([9]; 5500 with all six factors): 5000
